pIC50: −log10 of the molar value. Like-named read-outs stand apart in the source and are kept apart here.
Tests used:
[1] = Pharmacokinetic study in mice; format: in vivo
Procedure: The test compound was administered to 7-week-old female BALB/c (BALB/cAnN CrlCrlj) mice intravenously (dosage: 1 mg/kg) in a 50% PEG solution (0.01 mol/L HCl) or orally (dosage: 10 mg/kg) in a 0.5% methylcellulose aqueous solution, and blood was collected at the following times:
Intravenous administration: 5 min, 15 min, 30 min, 1 hr, 2 hr, 4 hr, 6 hr, and 24 hr after administration
Oral administration: 15 min, 30 min, 1 hr, 2 hr, 4 hr, 6 hr, and 24 hr after administration
The collected blood was centrifuged at 3000 rpm×10 min using a refrigerated centrifuge set at 4° C., and the obtained plasma was measured by LC-MS. A calibration curve was prepared from the value (peak ratio) obtained by dividing the peak area of the test substance by the peak area of the internal standard substance in MS and the concentration of the plasma calibration curve sample. The concentration in the sample was calculated from the peak ratio and the calibration curve of each sample.

RMGI cells = assay: Cell proliferation inhibition experiment using RMGI cells; format: cell-based; conditions: Homo sapiens, RMG-I, 144 h, cultured for 6 days, CellTiter-Glo
Procedure: RMGI cells (derived from ovarian cancer) were obtained from JCRB cell bank. RMGI cells were cultured in Ham's F12 medium containing 10% fetal bovine serum and 1% penicillin/streptomycin under conditions of 37° C. and 5% CO2.
(§1) 200 cells per well were seeded in a 384-well plate. One day after seeding, Examples 3, 7, 9, 10, 11, 20, and 23 to 25 were added so that the final concentration of DMSO was 0.1%, and the cells were cultured for 6 days. After the culture was completed, the cell viability was measured using CellTiter-Glo Luminescent Cell Viability Assay (Promega, G7570).

recombinant p300 = recombinant p300 (Homo sapiens (Human), UniProt Q09472); assay: HAT activity inhibition experiment (SensoLyte HAT(p300) Assay Kit); format: biochemical; conditions: recombinant p300, histone H3 peptide, acetyl CoA
Method in brief: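 Recombinant human p300 preincubated with compound 10 min at room temperature, then acetyl-CoA and histone H3 peptide added and reacted 30 min at 37 °C. After stop, developer added for 30 min at room temperature in the dark; fluorescence read at Ex 389/Em 513 nm.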

G-401 cells = assay: Cell proliferation inhibition experiment using G-401 cells; format: cell-based; conditions: Homo sapiens, 72 h, cultured for 3 days, CellTiter-Glo
Method in brief: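 Malignant rhabdoid tumor-derived cells, grown in McCoy's 5A with 10% FBS, were seeded at 500 cells/well and dosed one day later (final DMSO 0.1%). After 3 days of culture at 37° C, viability was read by CellTiter-Glo luminescence.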

hSERT = hSERT (Homo sapiens (Human), UniProt P31645); assay: Serotonin receptor inhibitory activity evaluation (binding assay, HEK293/hSERT membranes); conditions: HEK293/hSERT membrane preparation, [3H]Paroxetin
Procedure: The binding evaluation assay was outsourced to Eurofins. Specifically, HEK293/hSERT cells were homogenized in a buffer consisting of 100 mmol/L NaCl, 1 μmol/L Leupeptin, 10 μmol/L PMSF, and 50 mmol/L Tris-HCl (pH7.4). The membrane pellet obtained by centrifugation was resuspended in an incubation buffer consisting of 50 mmol/L Tris-HCl (pH 7.4), 120 mmol/L NaCl, and 5 mmol/L KCl to prepare a membrane preparation. The test compound (1-10 μmol/L DMSO solution), the membrane preparation, and 0.4 nmol/L [^3H]Paroxetin were mixed and incubated at 25° C. for 60 minutes. The cell membrane-[^3H]Paroxetin complex was bound to a GF/B filter mat by vacuum filtration and washed with 50 mmol/L Tris-HCl (pH 7.4). The effect on the receptor was assessed by measuring radioactivity using a scintillation counter.

hDAT = hDAT (Homo sapiens (Human), UniProt Q01959); assay: Dopamine receptor inhibitory activity evaluation (binding assay, CHO-S/hDAT membranes); conditions: CHO-S/hDAT membrane preparation
Procedure: The binding evaluation assay was outsourced to Eurofins. Specifically, CHO-S/hDAT cells were homogenized in an incubation buffer consisting of 50 mmol/L Tris-HCl, pH 7.4, 100 mmol/L NaCl, 1 μmol/L Leupeptin, and 10 μmol/L PMSF. The membrane pellet obtained by centrifugation was resuspended in the incubation buffer to prepare a membrane preparation. The test compound (1-10 μmol/L DMSO solution), the membrane preparation, and 0.15 nmol/L […] were mixed and incubated at 4° C. for 180 minutes. The cell membrane-[^125I]RTI-55 complex was bound to a GF/B filter mat by vacuum filtration and washed with 50 mmol/L Tris-HCl, pH 7.4. The effect on the receptor was assessed by measuring radioactivity using a scintillation counter.

Kuramochi cells = assay: Cell proliferation inhibition experiment using Kuramochi cells; format: cell-based; conditions: 144 h, cultured for 6 days, CellTiter-Glo
Procedure: Kuramochi cells (derived from ovarian cancer) were obtained from JCRB (Japanese Collection of Research Bioresources) cell bank. Kuramochi cells were cultured in RPMI-1640 medium containing 10% fetal bovine serum and 1% penicillin/streptomycin under conditions of 37° C. and 5% CO2.
as §1, with “500” for “200”, “20,” for “20, and”, “25, and 30 to 34” for “25”

[2] = Membrane permeability test (PAMPA); format: in vitro ADME
Method in brief: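 Donor compartment held compound in system solution over a GIT Lipid-0 membrane, with sink buffer on the acceptor side; incubation 4 h at 37° C. Donor and acceptor concentrations were read by UV (190-500 nm), or by LC-MS for weakly absorbing compounds, and Pe (10^−6 cm/sec) was calculated.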

[3] = female, BALB/c (BALB/cAnN CrlCrlj), mouse, plasma, oral, 10 mg/kg

hSERT, sequence (P31645 whole entry): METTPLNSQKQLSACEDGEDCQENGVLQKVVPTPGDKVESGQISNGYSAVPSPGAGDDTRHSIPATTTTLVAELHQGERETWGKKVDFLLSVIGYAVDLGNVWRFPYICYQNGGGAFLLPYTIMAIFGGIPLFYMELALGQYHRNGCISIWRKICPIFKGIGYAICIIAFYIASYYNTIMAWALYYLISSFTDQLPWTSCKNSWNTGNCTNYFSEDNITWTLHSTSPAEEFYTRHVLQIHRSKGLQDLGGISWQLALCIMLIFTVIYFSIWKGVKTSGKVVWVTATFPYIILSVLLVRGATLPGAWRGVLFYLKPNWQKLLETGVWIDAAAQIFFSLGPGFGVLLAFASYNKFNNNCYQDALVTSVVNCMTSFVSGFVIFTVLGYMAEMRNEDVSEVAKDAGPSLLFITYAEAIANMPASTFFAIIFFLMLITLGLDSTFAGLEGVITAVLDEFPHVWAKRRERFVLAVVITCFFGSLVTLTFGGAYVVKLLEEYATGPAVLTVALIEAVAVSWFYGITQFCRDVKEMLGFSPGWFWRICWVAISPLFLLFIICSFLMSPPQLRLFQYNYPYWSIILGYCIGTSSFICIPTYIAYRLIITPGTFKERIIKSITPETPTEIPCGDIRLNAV
hDAT, sequence (Q01959 whole entry): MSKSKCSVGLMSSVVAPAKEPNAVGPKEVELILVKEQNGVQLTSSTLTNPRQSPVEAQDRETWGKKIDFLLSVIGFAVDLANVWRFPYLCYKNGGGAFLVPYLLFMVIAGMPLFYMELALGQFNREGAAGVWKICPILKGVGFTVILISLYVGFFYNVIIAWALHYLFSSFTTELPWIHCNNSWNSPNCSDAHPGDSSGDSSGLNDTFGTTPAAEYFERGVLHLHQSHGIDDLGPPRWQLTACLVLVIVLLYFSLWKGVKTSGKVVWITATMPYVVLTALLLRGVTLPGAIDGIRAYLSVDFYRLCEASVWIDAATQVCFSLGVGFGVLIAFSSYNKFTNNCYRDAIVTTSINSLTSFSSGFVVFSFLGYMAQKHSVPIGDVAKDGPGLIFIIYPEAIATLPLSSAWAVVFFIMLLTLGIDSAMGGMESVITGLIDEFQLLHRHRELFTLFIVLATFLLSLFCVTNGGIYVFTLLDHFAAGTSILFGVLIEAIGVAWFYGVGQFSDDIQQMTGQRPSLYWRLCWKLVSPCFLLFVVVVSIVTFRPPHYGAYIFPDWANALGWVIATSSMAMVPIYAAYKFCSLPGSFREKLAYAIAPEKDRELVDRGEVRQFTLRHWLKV
recombinant p300, sequence (Q09472 whole entry): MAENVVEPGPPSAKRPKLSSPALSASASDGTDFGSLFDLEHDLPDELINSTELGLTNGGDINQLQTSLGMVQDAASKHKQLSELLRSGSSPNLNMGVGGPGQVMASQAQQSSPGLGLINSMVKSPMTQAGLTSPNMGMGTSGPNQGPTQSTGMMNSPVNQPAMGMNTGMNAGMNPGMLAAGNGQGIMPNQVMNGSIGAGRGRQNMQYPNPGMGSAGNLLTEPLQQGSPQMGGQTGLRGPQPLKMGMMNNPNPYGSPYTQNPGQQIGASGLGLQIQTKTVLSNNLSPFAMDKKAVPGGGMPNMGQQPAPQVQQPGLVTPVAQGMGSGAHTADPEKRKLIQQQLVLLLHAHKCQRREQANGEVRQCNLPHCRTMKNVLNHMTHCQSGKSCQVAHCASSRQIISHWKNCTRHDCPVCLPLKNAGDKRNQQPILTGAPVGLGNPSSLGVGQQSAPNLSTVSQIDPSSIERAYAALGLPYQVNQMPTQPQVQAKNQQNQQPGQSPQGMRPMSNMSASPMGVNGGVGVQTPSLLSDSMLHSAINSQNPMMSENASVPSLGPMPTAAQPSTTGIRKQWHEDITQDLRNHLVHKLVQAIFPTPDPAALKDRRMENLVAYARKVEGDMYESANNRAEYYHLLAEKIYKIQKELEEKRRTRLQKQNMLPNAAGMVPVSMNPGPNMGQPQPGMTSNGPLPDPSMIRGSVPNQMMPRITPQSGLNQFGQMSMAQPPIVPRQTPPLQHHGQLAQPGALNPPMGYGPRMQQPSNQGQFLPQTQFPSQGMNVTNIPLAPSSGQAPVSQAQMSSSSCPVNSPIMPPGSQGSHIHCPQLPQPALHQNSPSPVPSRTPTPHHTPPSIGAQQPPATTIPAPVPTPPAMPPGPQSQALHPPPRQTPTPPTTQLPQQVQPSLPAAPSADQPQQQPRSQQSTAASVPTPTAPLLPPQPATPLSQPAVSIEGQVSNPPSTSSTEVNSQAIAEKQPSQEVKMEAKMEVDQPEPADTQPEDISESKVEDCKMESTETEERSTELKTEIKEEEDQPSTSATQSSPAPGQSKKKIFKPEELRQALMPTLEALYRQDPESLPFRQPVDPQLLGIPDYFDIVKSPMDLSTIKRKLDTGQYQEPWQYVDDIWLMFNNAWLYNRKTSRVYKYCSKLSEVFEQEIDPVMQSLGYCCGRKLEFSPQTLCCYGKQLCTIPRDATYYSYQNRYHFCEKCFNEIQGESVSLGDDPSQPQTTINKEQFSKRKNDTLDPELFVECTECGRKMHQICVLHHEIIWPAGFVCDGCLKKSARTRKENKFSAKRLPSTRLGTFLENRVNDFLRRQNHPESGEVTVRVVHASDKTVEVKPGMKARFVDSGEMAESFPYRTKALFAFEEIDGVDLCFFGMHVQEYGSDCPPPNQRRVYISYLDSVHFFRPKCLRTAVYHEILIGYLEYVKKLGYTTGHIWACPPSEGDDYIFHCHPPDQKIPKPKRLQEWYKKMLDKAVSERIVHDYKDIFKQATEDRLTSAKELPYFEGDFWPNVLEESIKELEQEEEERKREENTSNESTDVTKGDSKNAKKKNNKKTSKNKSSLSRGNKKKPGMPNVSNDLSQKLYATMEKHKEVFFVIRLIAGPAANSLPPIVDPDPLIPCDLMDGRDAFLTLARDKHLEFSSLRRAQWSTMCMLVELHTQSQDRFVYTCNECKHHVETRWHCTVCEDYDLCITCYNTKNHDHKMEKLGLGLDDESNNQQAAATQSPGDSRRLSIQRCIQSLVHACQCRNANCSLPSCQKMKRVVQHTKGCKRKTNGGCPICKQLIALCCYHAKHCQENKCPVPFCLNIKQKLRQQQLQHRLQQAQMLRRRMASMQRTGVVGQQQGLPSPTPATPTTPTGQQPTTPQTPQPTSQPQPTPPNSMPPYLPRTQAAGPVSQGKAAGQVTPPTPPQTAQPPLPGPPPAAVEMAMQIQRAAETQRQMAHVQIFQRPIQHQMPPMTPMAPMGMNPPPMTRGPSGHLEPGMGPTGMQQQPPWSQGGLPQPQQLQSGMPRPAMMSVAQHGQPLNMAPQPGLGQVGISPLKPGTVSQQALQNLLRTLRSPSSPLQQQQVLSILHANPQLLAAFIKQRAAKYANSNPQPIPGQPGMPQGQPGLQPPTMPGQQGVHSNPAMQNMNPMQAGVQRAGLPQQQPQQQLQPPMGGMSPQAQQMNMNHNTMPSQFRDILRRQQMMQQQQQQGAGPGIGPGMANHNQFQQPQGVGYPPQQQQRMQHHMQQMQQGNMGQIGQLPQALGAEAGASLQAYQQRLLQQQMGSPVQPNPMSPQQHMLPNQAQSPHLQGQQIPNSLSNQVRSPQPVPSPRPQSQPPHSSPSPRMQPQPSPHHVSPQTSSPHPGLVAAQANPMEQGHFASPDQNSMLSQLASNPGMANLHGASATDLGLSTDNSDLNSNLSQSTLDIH

CN1CC(N(Cc2ccc(F)cn2)C(=O)CN2C(=O)N[C@]3(C[C@@H](F)c4cc(-c5cnn(CC6COC6)c5)ccc43)C2=O)(C(F)(F)F)C1 [Example 25, 2-[(1′S,3′R)-3′-fluoro-5′-{1-[(oxetan-3-yl)methyl]-1H-pyrazol-4-yl}-2,5-dioxo-2′,3′-dihydrospiro[imidazolidine-4,1′-inden]-1-yl]-N-[(5-fluoropyridin-2-yl)methyl]-N-[1-methyl-3-(trifluoromethyl)azetidin-3-yl]acetamide]
AUC ([1]; female, BALB/c (BALB/cAnN CrlCrlj), mouse, plasma, intravenous, 1 mg/kg): 672 ng·h/mL | AUC [1, 3]: 1310 ng·h/mL | Cmax [1, 3]: 1630 ng/mL | BA ([1]; oral, 10 mg/kg): 19.6% | pIC50 (RMGI cells): 7.39 | pIC50 (recombinant p300): 8.24 | pIC50 (G-401 cells): 7.23 | inhibition at 10 µM (hSERT): 2% | inhibition at 10 µM (hDAT): 9% | pIC50 (Kuramochi cells): 6.37 | Papp at 4 h ([2]; pH 5.0, 37° C., read-out: pH 5.0 Pe): 1 ×10⁻⁶ cm/s | Papp at 4 h ([2]; pH 7.4, 37° C., read-out: pH 7.4 Pe): 6.1 ×10⁻⁶ cm/s

From US20250257055A1, “TERTIARY AMIDE DERIVATIVES SUBSTITUTED WITH 4-MEMBERED RING STRUCTURE” (Sumitomo Pharma Co., Ltd., priority 2024, published 2025)
